Experimental data published in the NIST ThermoML archive (doi:10.1016/j.tca.2011.02.004).

What was measured:
[1] = 101.3 kPa, Liquid; for speed of sound: Linear variable-path acoustic interferometer; for mass density: Pycnometric method
[2] = xn = mol fraction of the nth substance listed; conditions: 101 kPa, Liquid; for speed of sound: Linear variable-path acoustic interferometer; for mass density: Pycnometric method

CCN(CC)c1ccccc1 [N,N-diethylaniline]
[1]
Conditions	mass density [kg/m3]	speed of sound [m/s]
303.15 K	926.2	1434
313.15 K	917.6	1396
323.15 K	909.2	1358

CCN(CC)c1ccccc1 [N,N-diethylaniline] + C1CCOC1
[2]
Conditions	mass density, 303.15 K [kg/m3]	mass density, 313.15 K [kg/m3]	mass density, 323.15 K [kg/m3]	speed of sound, 303.15 K [m/s]	speed of sound, 313.15 K [m/s]	speed of sound, 323.15 K [m/s]
x2 = 0	926.2	917.6	909.2	1434	1396	1358
x2 = 0.0933	923.9	915.7	907.8	1428	1390	1354
x2 = 0.1907	921.2	913.3	905.7	1418	1379	1343
x2 = 0.2899	918.2	910.4	903	1405	1366	1330
x2 = 0.3879	914.9	907.1	899.6	1390	1351	1315
x2 = 0.4892	910.8	903.2	895.3	1372	1333	1296
x2 = 0.5937	906	898.4	890.5	1352	1312	1275
x2 = 0.6904	900.9	893.1	885.1	1331	1291	1252
x2 = 0.7948	894.3	886.2	878.1	1307	1265	1226
x2 = 0.8935	886.9	877.9	869.2	1283	1240	1200

CCN(CC)c1ccccc1 [N,N-diethylaniline] + CC(C)OC(C)C
[2]
Conditions	mass density, 303.15 K [kg/m3]	mass density, 313.15 K [kg/m3]	mass density, 323.15 K [kg/m3]	speed of sound, 303.15 K [m/s]	speed of sound, 313.15 K [m/s]	speed of sound, 323.15 K [m/s]
x2 = 0	926.2	917.6	909.2	1434	1396	1358
x2 = 0.078	914.4	906.8	899	1403	1367	1332
x2 = 0.1606	901	893.6	886.6	1370	1336	1302
x2 = 0.2581	884	876.7	870.2	1330	1296	1261
x2 = 0.3421	868.5	861.1	854.7	1295	1260	1224
x2 = 0.4336	850.7	843	836.7	1255	1218	1182
x2 = 0.5341	829.8	822.1	815.7	1209	1171	1134
x2 = 0.6457	804.7	797.1	790.6	1156	1117	1080
x2 = 0.7545	778.3	770.6	764	1103	1063	1023
x2 = 0.8762	746.7	738.3	730.8	1042	1000	958

CN(C)c1ccccc1 [N,N-dimethylaniline]
[1]
Conditions	mass density [kg/m3]	speed of sound [m/s]
303.15 K	948.4	1468
313.15 K	939.8	1431
323.15 K	931.5	1393

CN(C)c1ccccc1 [N,N-dimethylaniline] + C1CCOC1
[2]
Conditions	mass density, 303.15 K [kg/m3]	mass density, 313.15 K [kg/m3]	mass density, 323.15 K [kg/m3]	speed of sound, 303.15 K [m/s]	speed of sound, 313.15 K [m/s]	speed of sound, 323.15 K [m/s]
x2 = 0	948.4	939.8	931.5	1468	1431	1393
x2 = 0.0683	945.8	937.5	929.5	1459	1424	1391
x2 = 0.1883	940.8	932.9	925.2	1439	1408	1376
x2 = 0.2797	936.7	928.6	921.1	1423	1391	1359
x2 = 0.389	931	922.9	915.3	1403	1370	1337
x2 = 0.4723	926.2	918	910.2	1387	1354	1319
x2 = 0.5757	919.3	911.1	903	1365	1331	1294
x2 = 0.6813	910.9	902.8	894.4	1340	1304	1267
x2 = 0.7866	901.1	893.2	884.2	1314	1276	1238
x2 = 0.8909	890.1	881.4	871.7	1287	1246	1206

CN(C)c1ccccc1 [N,N-dimethylaniline] + CC(C)OC(C)C
[2]
Conditions	mass density, 303.15 K [kg/m3]	mass density, 313.15 K [kg/m3]	mass density, 323.15 K [kg/m3]	speed of sound, 303.15 K [m/s]	speed of sound, 313.15 K [m/s]	speed of sound, 323.15 K [m/s]
x2 = 0	948.4	939.8	931.5	1468	1431	1393
x2 = 0.0741	932.6	924.8	916.9	1430	1396	1360
x2 = 0.1589	914	906.5	898.6	1385	1353	1318
x2 = 0.2428	895.3	887.5	879.6	1342	1311	1277
x2 = 0.3355	874.3	866.2	858.3	1296	1262	1229
x2 = 0.4294	852.6	844.2	836.3	1250	1214	1182
x2 = 0.5338	827.8	819.2	811.5	1199	1161	1128
x2 = 0.6362	802.8	794.1	786.4	1149	1112	1078
x2 = 0.7466	775.2	766.4	758.5	1096	1059	1024
x2 = 0.8676	744.8	735.7	726.9	1038	1000	961

CC(C)OC(C)C [diisopropyl ether]
[1]
Conditions	mass density [kg/m3]	speed of sound [m/s]
303.15 K	712.9	976
313.15 K	702.5	932
323.15 K	691.9	889

CC(C)OC(C)C [diisopropyl ether] + CCN(CC)c1ccccc1
[2], x1 = 1
Conditions	mass density [kg/m3]	speed of sound [m/s]
303.15 K	712.9	976
313.15 K	702.5	932
323.15 K	691.9	889

CC(C)OC(C)C [diisopropyl ether] + CN(C)c1ccccc1
[2], x1 = 1
Conditions	mass density [kg/m3]	speed of sound [m/s]
303.15 K	712.9	976
313.15 K	702.5	932
323.15 K	691.9	889

C1CCOC1 [tetrahydrofuran]
[1]
Conditions	mass density [kg/m3]	speed of sound [m/s]
303.15 K	876.9	1254
313.15 K	865.7	1207
323.15 K	854.8	1165

C1CCOC1 [tetrahydrofuran] + CCN(CC)c1ccccc1
[2], x1 = 1
Conditions	mass density [kg/m3]	speed of sound [m/s]
303.15 K	876.9	1254
313.15 K	865.7	1207
323.15 K	854.8	1165

C1CCOC1 [tetrahydrofuran] + CN(C)c1ccccc1
[2], x1 = 1
Conditions	mass density [kg/m3]	speed of sound [m/s]
303.15 K	876.9	1254
313.15 K	865.7	1207
323.15 K	854.8	1165
